Source: patent US20250163072A1, “MACROCYCLIC COMPOUNDS FOR THE TREATMENT OF CANCER” (Hoffmann-La Roche Inc., priority 2021, published 2025)

Legend:
Format in all cases: cell-based, human
[1] = tested on: KRAS G12C in NCI-H358 cells; assay: pERK inhibition assay, NCI-H358; details: Homo sapiens, 4 hours incubation
Description: (§1) This assay is to measure the ability of test compounds in inhibiting the phosphorylation of ERK, the downstream signaling of KRAS G12C in NCI-H358 cells, KRAS G12D in AGS cells, and KRAS G12V in SW620. NCI-H358 (ATCC-CRL5807) cells, AGS (ATCC-CRL-1739) cells, SW620 (ATCC-CCL-227) cells were all grown and maintained using RPMI-1640 medium (Thermo Fisher Scientific) with 10% fetal bovine serum and 1% penicillin/streptomycin. On the day prior to compound addition, cells were plated in tissue culture-treated 96 well plates (Corning-3699) at a density of 30,000 cell/well, 20,000 cell/well, 30,000 cell/well for NCI-H358, AGS and SW620 respectively, and allowed for attachment overnight. Diluted compounds were then added in a final concentration of 0.5% DMSO. After 4 hours of incubation, the medium was removed, 100 μL of 4% formaldehyde was added, and the assay plates were incubated at room temperature for 20 minutes. The plates were then washed once with phosphate buffered saline (PBS), and permeabilized with 100 μL of chilled methanol for 10 minutes. Non-specific antibody binding to the plates was blocked using 50 μL 1×BSA blocking buffer (Thermo-37520, 10-fold dilution by Phosphate-Buffered Saline Tween (PBST) for at least 1 hour at room temperature. The amount of phosphor-ERK was determined using an antibody specific for phosphorylated form of ERK. Primary antibody (pERK, CST-4370, Cell Signaling Technology) was diluted 1:300 in blocking buffer, with 50 μL aliquoted to each well, and incubated overnight at 4° C. Cells were washed five times for 5 minutes with PBST. Secondary antibody (HRP-linked anti-rabbit IgG, CST-7074, Cell Signaling Technology) was diluted 1:1000 in blocking buffer, and 50 μL was added to each well and incubated 1-2 hours at room temperature. Cells were washed 5 times for 5 minutes with PBST, 100 μL TMB ELISA substrate (abcam-ab171523) were added and gently shake for 20 minutes. 50 μL stop solution (abcam-ab171529) were added, and then read the signal (OD450) by EnVision. IC50 was determined by fitting a 4-parameter sigmoidal concentration response model.

KRAS G12D in AGS cells = assay: pERK inhibition assay, AGS; details: Homo sapiens, 4 hours incubation
Description: as §1

KRAS G12V in SW620 = assay: pERK inhibition assay, SW620; details: Homo sapiens, SW-620, SW620 cells, 4 hours incubation
Description: as §1

NCI-H358 cells = assay: Cell viability assay, NCI-H358; details: Homo sapiens, NCI-H358, 72 hours, Cell Counting Kit-8, read-out: G12C IC50
Description: (§2) The purpose of this cellular assay was to determine the effects of test compounds on the proliferation of human cancer cell lines NCI-H358 (ATCC-CRL5807) cells, AGS (ATCC-CRL-1739) cells, SW620 (ATCC-CCL-227) over a 3-day treatment period by quantifying the amount of NADPH present at endpoint using Cell Counting Kit-8. Cells were seeded at 5,000 cells/well (NCI-H358), 2,000 cells/well (AGS) 2,000 cells/well (SW620) in 96-well assay plates (Corning-3699) and incubated overnight. On the day of the assay, diluted compounds were then added in a final concentration of 0.5% DMSO. After 72 hours incubation, a tenth of the volume of cell counting kit 8(Dnjindo-CK04) was added into each well. Read the signal (OD450 minus OD650) using EnVision after 2 hours incubation. IC50 was determined by fitting a 4-parameter sigmoidal concentration response model.

SW620 cells = assay: Cell viability assay, SW620; details: Homo sapiens, SW-620, SW620, 72 hours, Cell Counting Kit-8, read-out: G12V IC50
Description: as §2

AGS cells = assay: Cell viability assay, AGS; details: Homo sapiens, 72 hours, Cell Counting Kit-8, read-out: G12D IC50
Description: as §2

IC50 [1] [nM] | IC50 (KRAS G12D in AGS cells) [nM] | IC50 (KRAS G12V in SW620) [nM] | IC50 (NCI-H358 cells) [nM] | IC50 (SW620 cells) [nM] | IC50 (AGS cells) [nM] | SMILES
42 | 297 | 51 | 30 | 162 |  | C#CC1CC(C(=O)N(C)[C@H](C(=O)N[C@H]2Cc3cc(O)cc(c3)-c3ccc4c(c3)c(c(-c3cccnc3[C@H](C)OC)n4CC)CC(C)(C)COC(=O)[C@@H]3CCCN(N3)C2=O)C(C)C)C1 (stereo partly drawn) [Example 4, N-[(1S)-1-[[(8S,14S)-22-ethyl-4-hydroxy-(21M)-21-[2-[(1S)-1-methoxyethyl]-3-pyridyl]-18,18-dimethyl-9,15-dioxo-16-oxa-10,22,28-triazapentacyclo[18.5.2.12,6.110,14.023,27]nonacosa-1(26),2,4,6(29),20,23(27),24-heptaen-8-yl]carbamoyl]-2-methyl-propyl]-3-ethynyl-N-methyl-cyclobutanecarboxamide]
8 | 469 |  | 4 |  |  | CCn1c(-c2cccnc2[C@H](C)OC)c2c3cc(ccc31)-c1cc(O)cc(c1)C[C@H](NC(=O)[C@H](C(C)C)N(C)C(=O)[C@H]1CCN(C(=O)[C@@H](F)Cl)C1)C(=O)N1CCC[C@H](N1)C(=O)OCC(C)(C)C2 (atropisomer, axis not shown; (M)) [Example 1, (3S)-1-[(2S)-2-chloro-2-fluoro-acetyl]-N-[(1S)-1-[[(8S,14S)-22-ethyl-4-hydroxy-(21M)-21-[2-[(1S)-1-methoxyethyl]-3-pyridyl]-18,18-dimethyl-9,15-dioxo-16-oxa-10,22,28-triazapentacyclo[18.5.2.12,6.110,14.023,27]nonacosa-1(26),2,4,6 (29),20,23 (27),24-heptaen-8-yl]carbamoyl]-2-methyl-propyl]-N-methyl-pyrrolidine-3-carboxamide]
32 | 291 | 67 | 89 | 281 | 1240 | C#CC1CCN(C(=O)N(C)[C@H](C(=O)N[C@H]2Cc3cc(O)cc(c3)-c3ccc4c(c3)c(c(-c3cccnc3[C@H](C)OC)n4CC)CC(C)(C)COC(=O)[C@@H]3CCCN(N3)C2=O)C(C)C)CC1 (atropisomer, axis not shown; (M)) [Example 15, N-[(1S)-1-[[(8S,14S)-22-ethyl-4-hydroxy-(21M)-21-[2-[(1S)-1-methoxyethyl]-3-pyridyl]-18,18-dimethyl-9,15-dioxo-16-oxa-10,22,28-triazapentacyclo[18.5.2.12,6.110,14.023,27]nonacosa-1(26),2,4,6(29),20,23(27),24-heptaen-8-yl]carbamoyl]-2-methyl-propyl]-4-ethynyl-N-methyl-piperidine-1-carboxamide]
83 | 164 | 380 | 118 | 161 |  | CCn1c(-c2cccnc2[C@H](C)OC)c2c3cc(ccc31)-c1cc(O)cc(c1)C[C@H](NC(=O)[C@H](C(C)C)N(C)C(=O)[C@H]1CCN(C(=O)C34CC3C4)C1)C(=O)N1CCC[C@H](N1)C(=O)OCC(C)(C)C2 (stereo partly drawn) [Example 11, (3S)-1-(bicyclo[1.1.0]butane-1-carbonyl)-N-[(1S)-1-[[(8S,14S)-22-ethyl-4-hydroxy-(21M)-21-[2-[(1S)-1-methoxyethyl]-3-pyridyl]-18,18-dimethyl-9,15-dioxo-16-oxa-10,22,28-triazapentacyclo[18.5.2.12,6.110,14.023,27]nonacosa-1(26),2,4,6(29),20,23(27),24-heptaen-8-yl]carbamoyl]-2-methyl-propyl]-N-methyl-pyrrolidine-3-carboxamide]
436 |  |  |  |  |  | CCn1c(-c2cccnc2[C@H](C)OC)c2c3cc(ccc31)-c1cc(O)cc(c1)C[C@H](NC(=O)[C@H](C(C)C)N(C)C(=O)C1CC(C(=O)C=S(C)(C)=O)C1)C(=O)N1CCC[C@H](N1)C(=O)OCC(C)(C)C2 (stereo partly drawn) [Example 8, 3-[2-[dimethyl(oxo)-λ^6-sulfanylidene]acetyl]-N-[(1S)-1-[[(8S,14S)-22-ethyl-4-hydroxy-(21M)-21-[2-[(1S)-1-methoxyethyl]-3-pyridyl]-18,18-dimethyl-9,15-dioxo-16-oxa-10,22,28-triazapentacyclo[18.5.2.12,6.110,14.023,27]nonacosa-1(26),2,4,6(29),20,23(27),24-heptaen-8-yl]carbamoyl]-2-methyl-propyl]-N-methyl-cyclobutanecarboxamide]
 |  |  | 797 |  |  | C#CCN1CC[C@H](C(=O)N(C)[C@H](C(=O)N[C@H]2Cc3cc(O)cc(c3)-c3ccc4c(c3)c(c(-c3cccnc3[C@H](C)OC)n4CC)CC(C)(C)COC(=O)[C@@H]3CCCN(N3)C2=O)C(C)C)C1 (atropisomer, axis not shown; (M)) [Example 6, (3S)-N-[(1S)-1-[[(8S,14S)-22-ethyl-4-hydroxy-(21M)-21-[2-[(1S)-1-methoxyethyl]-3-pyridyl]-18,18-dimethyl-9,15-dioxo-16-oxa-10,22,28-triazapentacyclo[18.5.2.12,6.110,14.023,27]nonacosa-1(26),2,4,6(29),20,23(27),24-heptaen-8-yl]carbamoyl]-2-methyl-propyl]-N-methyl-1-prop-2-ynyl-pyrrolidine-3-carboxamide]
513 | 236 |  |  |  |  | CCn1c(-c2cccnc2[C@H](C)OC)c2c3cc(ccc31)-c1cc(O)cc(c1)C[C@H](NC(=O)[C@H](C(C)C)N(C)C(=O)[C@H]1CCN(CC#N)C1)C(=O)N1CCC[C@H](N1)C(=O)OCC(C)(C)C2 (atropisomer, axis not shown; (M)) [Example 7, (3S)-1-(cyanomethyl)-N-[(1S)-1-[[(8S,14S)-22-ethyl-4-hydroxy-(21M)-21-[2-[(1S)-1-methoxyethyl]-3-pyridyl]-18,18-dimethyl-9,15-dioxo-16-oxa-10,22,28-triazapentacyclo[18.5.2.12,6.110,14.023,27]nonacosa-1(26),2,4,6(29),20,23(27),24-heptaen-8-yl]carbamoyl]-2-methyl-propyl]-N-methyl-pyrrolidine-3-carboxamide]
23 |  | 124 | 6 | 449 | 1130 | CCn1c(-c2cccnc2[C@H](C)OC)c2c3cc(ccc31)-c1csc(n1)C[C@H](NC(=O)[C@H](C(C)C)N(C)C(=O)[C@H]1CCN(C(=O)[C@H](F)Cl)C1)C(=O)N1CCC[C@H](N1)C(=O)OCC(C)(C)C2 (atropisomer, axis not shown; (M)) [Example 17, (3S)-1-[(2R)-2-chloro-2-fluoro-acetyl]-N-[(1S)-1-[[(7S,13S)-21-ethyl-(20M)-20-[2-[(1S)-1-methoxyethyl]-3-pyridyl]-17,17-dimethyl-8,14-dioxo-15-oxa-4-thia-9,21,27,28-tetrazapentacyclo[17.5.2.12,5.19,13.022,26]octacosa-1(25),2,5(28),19,22(26),23-hexaen-7-yl]carbamoyl]-2-methyl-propyl]-N-methyl-pyrrolidine-3-carboxamide]
189 |  | 274 | 66 | 328 |  | CCn1c(-c2cccnc2[C@H](C)OC)c2c3cc(ccc31)-c1cc(O)cc(c1)C[C@H](NC(=O)[C@H](C(C)C)N(C)C(=O)C1CC(C#Cc3ccccn3)C1)C(=O)N1CCC[C@H](N1)C(=O)OCC(C)(C)C2 (stereo partly drawn) [Example 13, N-[(1S)-1-[[(8S,14S)-22-ethyl-4-hydroxy-(21M)-21-[2-[(1S)-1-methoxyethyl]-3-pyridyl]-18,18-dimethyl-9,15-dioxo-16-oxa-10,22,28-triazapentacyclo[18.5.2.12,6.110,14.023,27]nonacosa-1(26),2,4,6(29),20,23(27),24-heptaen-8-yl]carbamoyl]-2-methyl-propyl]-N-methyl-3-[2-(2-pyridyl)ethynyl]cyclobutanecarboxamide]
